Measured values published in ChEMBL document CHEMBL1140022, “Adenosine phosphonate inhibitors of lipid II: alanyl tRNA ligase MurM from Streptococcus pneumoniae” (Bioorg Med Chem Lett, 2007).
Activity calls are given as the source filed them. The calls are words filed in the database; no cut-off is given here.

Columns and labels:
[1] = Inhibition of Streptococcus pneumoniae 159 MurM
[2] = system: Streptococcus pneumoniae; assay: Antibacterial activity against penicillin-resistant Streptococcus pneumoniae 159 at 1 mM; type: functional, organism-based
[3] = system: Streptococcus pneumoniae; assay: Inhibition of Streptococcus pneumoniae 159 MurM at 1 mM

| SMILES | IC50 [1] [µM] | Activity [2] | Activity [3] |
| --- | --- | --- | --- |
| CC(N)P(=O)(O)O[C@H]1C[C@H](n2cnc3c(N)ncnc32)O[C@@H]1CO (some centres undefined) | 100 | inactive | – |
| CC(N)P(=O)(O)O[C@@H]1[C@H](O)[C@@H](CO)O[C@H]1n1cnc2c(N)ncnc21 (some centres undefined) | 780 | – | – |
| COc1ccc(CC(N)C(=O)N[C@H]2[C@@H](O)[C@H](n3cnc4c(N(C)C)ncnc43)O[C@@H]2CO)cc1 (single isomer, unassigned) | – | – | inactive |
